As a reminder, the EC50 is the concentration giving half of the maximal effect.

In one assay the target is T1, human TLR7 (Homo sapiens, UniProt Q9NYK1).
T1 construct: host or cells: HEK-Blue TLR7 cells (engineered human embryonic kidney cells)
T1 sequence (Q9NYK1 27-1049): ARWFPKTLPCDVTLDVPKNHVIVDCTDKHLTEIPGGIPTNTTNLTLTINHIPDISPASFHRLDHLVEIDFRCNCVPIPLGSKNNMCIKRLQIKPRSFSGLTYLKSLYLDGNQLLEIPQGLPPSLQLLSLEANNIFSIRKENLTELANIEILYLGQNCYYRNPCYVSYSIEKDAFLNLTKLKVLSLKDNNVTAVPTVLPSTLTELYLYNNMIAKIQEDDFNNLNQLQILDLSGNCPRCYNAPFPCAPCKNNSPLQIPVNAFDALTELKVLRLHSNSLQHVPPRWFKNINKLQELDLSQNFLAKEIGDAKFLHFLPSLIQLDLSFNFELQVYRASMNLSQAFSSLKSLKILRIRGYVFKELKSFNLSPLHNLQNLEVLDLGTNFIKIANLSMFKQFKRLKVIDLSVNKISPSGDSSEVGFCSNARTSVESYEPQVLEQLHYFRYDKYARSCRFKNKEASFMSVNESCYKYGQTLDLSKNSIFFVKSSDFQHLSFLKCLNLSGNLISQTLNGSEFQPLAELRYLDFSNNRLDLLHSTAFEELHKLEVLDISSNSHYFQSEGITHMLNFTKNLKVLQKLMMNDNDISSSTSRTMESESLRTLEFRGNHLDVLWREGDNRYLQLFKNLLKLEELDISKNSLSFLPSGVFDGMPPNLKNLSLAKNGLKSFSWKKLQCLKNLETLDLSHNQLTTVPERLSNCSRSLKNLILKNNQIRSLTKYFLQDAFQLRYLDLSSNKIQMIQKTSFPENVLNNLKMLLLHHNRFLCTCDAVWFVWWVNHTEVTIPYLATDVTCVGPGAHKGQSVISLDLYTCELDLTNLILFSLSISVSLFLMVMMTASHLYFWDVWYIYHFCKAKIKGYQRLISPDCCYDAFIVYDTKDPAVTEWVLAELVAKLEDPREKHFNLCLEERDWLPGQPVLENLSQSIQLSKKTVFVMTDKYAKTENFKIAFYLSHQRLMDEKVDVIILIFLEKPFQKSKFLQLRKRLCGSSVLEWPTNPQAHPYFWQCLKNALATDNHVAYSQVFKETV
Description: Human TLR7 agonist activity reporter assay (HEK-Blue TLR7 cells, SEAP reporter). Format: cell-based. To be noted: 18 h treatment, average where assay repeated, Table A1, read-out: hTLR7 Agonism EC50. On the procedure:
This procedure describes a method for assaying human TLR7 (hTLR7) agonist activity of the compounds disclosed in this specification.
HEK-Blue™ TLR7 cells were added to each well of a 384-well tissue-culture plate (15,000 cells per well) and incubated 16-18 h at 37° C., 5% CO2. Compounds (100 nl) were dispensed into wells containing the HEK-Blue™ TLR cells and the treated cells were incubated at 37° C., 5% CO2. After 18 h treatment ten microliters of freshly-prepared Quanti-Blue™ reagent (Invivogen) was added to each well, incubated for 30 min (37° C., 5% CO2) and SEAP levels measured using an Envision plate reader (OD=620 nm). The half maximal effective concentration values (EC50; compound concentration which induced a response halfway between the assay baseline and maximum) were calculated.

The test system of the next assay is CD69. The assay is described as follows: Induction of CD69 in human whole blood. The assay is classed as cell-based. To be noted: 17 h, CD69 surface staining, 100% set to 1 uM resiquimod, average where assay repeated, Table A1, read-out: hWB CD69 EC50. On the procedure:
The induction of Type I interferon (IFN) MX-1 genes and the B-cell activation marker CD69 are downstream events that occur upon activation of the TLR7 pathway. The following is a human whole blood assay that measures their induction in response to a TLR7 agonist.
Heparinized human whole blood was harvested from human subjects and treated with test TLR7 agonist compounds at 1 mM. The blood was diluted with RPMI 1640 media and Echo was used to predot 10 nL per well giving a final concentration of 1 uM (10 nL in 10 uL of blood). After mixing on a shaker for 30 sec, the plates were covered and placed in a 37° C. chamber for o/n=17 hrs. Fixing/lysis buffer was prepared (5×->1× in H2O, warm at 37° C.; Cat #BD 558049) and kept the perm buffer (on ice) for later use.
For surface markers staining (CD69): prepared surface Abs: 0.045 ul hCD14-FITC (ThermoFisher Cat #MHCD1401)+0.6 ul hCD19-ef450 (ThermoFisher Cat #48-0198-42)+1.5 ul hCD69-PE (cat #BD555531)+0.855 ul FACS buffer. Added 3 ul/well, spin1000 rpm for 1 min and mixed on shaker for 30 sec, put on ice for 30 mins. Stop stimulation after 30 minutes with 70 uL of prewarmed 1× fix/lysis buffer and use Feliex mate to resuspend (15 times, change tips for each plate) and incubate at 37C for 10 minutes.
Centrifuge at 2000 rpm for 5 minutes aspirate with HCS plate washer, mix on shaker for 30 sec and then wash with 70 uL in dPBS and pelleted 2×s (2000 rpm for 5 min) and 50 ul wash in FACS buffer pelleted 1×s(2000 rpm for 5 min). Mix on shaker for 30 sec. For Intracellular markers staining (MX-1): Add 50 ul of BD Perm buffer III and mix on shaker for 30 sec. Incubate on ice for 30 minutes (in the dark). Wash with 50 uL of FACS buffer 2× (spin @2300 rpm×5 min after perm) followed by mixing on shaker for 30 sec. Resuspended in 20 ul of FACS buffer containing MX1 antibody ( ) (4812)-Alexa 647: Novus Biologicals #NBP2-43704AF647) 20 ul FACS bf+0.8 ul hlgG+0.04 ul MX-1. Spin 1000 rpm for 1 min, mix on shaker for 30se and the samples were incubated at RT in the dark for 45 minutes followed by washing 2×FACS buffer (spin @2300 rpm×5 min after perm). Resuspend 20 ul (35 uL total per well) of FACS buffer and cover with foil and place in 4° C. to read the following day. Plates were read on iQuePlus. The results were loaded into toolset and IC50 curves are generated in curve master. The y-axis 100% is set to 1 uM of resiquimod.

Regarding “4-[3-({5-amino-7-[({spiro- [2.3]hexan-5-yl}methyl)- amino]-1H-pyrazolo[4,3- d]pyrimidin-1-yl}methyl)-4- methoxybenzoyl]piperazin- 2-one [Compound 153]”, the EC50 came to 2.25 µM at human TLR7 and 0.485 µM with CD69.

Regarding `CCCCNc1nc(N)nc2cnn(Cc3cc(CN4CC(OC)C4)ccc3OC)c12` [Compound 105, N7-butyl-1-({2-methoxy-5-[(3-methoxyazetidin-1-yl)methyl]phenyl}methyl)-1H-pyrazolo[4,3-d]pyrimidine-5,7-diamine], the EC50 was found to be 0.124 µM at human TLR7 and 0.0909 µM in the assay on CD69.

In the case of `CCCCNc1nc(N)nc2cnn(Cc3cc(CN)ccc3OC)c12` [Compound 114, 1-{[5-(aminomethyl)-2-methoxyphenyl]methyl}-N7-butyl-1H-pyrazolo[4,3-d]pyrimidine-5,7-diamine], the figures for the EC50 on human TLR7 and in the assay with CD69 were 0.234 µM and 0.0067 µM, respectively.

With `CCCCNc1nc(N)nc2cnn(Cc3cc(CNC4CC(O)C4)ccc3OC)c12` (stereo not drawn) [Compound 116, (1r,3r)-3-{[(3-{[5-amino-7-(butylamino)-1H-pyrazolo-[4,3-d]pyrimidin-1-yl]methyl}-4-methoxyphenyl)-methyl]amino}cyclobutan-1-ol], the results for the 50% effective concentration (EC50) at human TLR7 and with CD69 were 0.335 µM and 0.205 µM, respectively.

Consider `CCCCNc1nc(N)nc2cnn(Cc3cc(CNC4CC45CC5)ccc3OC)c12` (stereo not drawn) [Compound 117, N7-butyl-1-({2-methoxy-5-[({spiro[2.2]pentan-1-yl}amino)methyl]phenyl}methyl)-1H-pyrazolo[4,3-d]pyrimidine-5,7-diamine], for which the EC50 on human TLR7 turned out to be 0.562 µM; in the assay with CD69, 0.156 µM.

As for `CCCCNc1nc(N)nc2cnn(Cc3cc(CN4CC5CC4CN5)ccc3OC)c12` (stereo not drawn) [Compound 118, N7-butyl-1-{[5-({2,5-diaza-bicyclo[2.2.1]heptan-2-yl}methyl)-2-methoxy-phenyl]methyl}-1H-pyrazolo[4,3-d]pyrimidine-5,7-diamine], the values for the EC50 at human TLR7 and with CD69 were 0.423 µM and 0.335 µM, respectively.

Take `CCCCNc1nc(N)nc2cnn(Cc3cc(CNC4(C)CCOCC4)ccc3OC)c12` [Compound 119, N7-butyl-1-[(2-methoxy-5-{[(4-methyloxan-4-yl)amino]methyl}phenyl)methyl]-1H-pyrazolo[4,3-d]pyrimidine-5,7-diamine]: the EC50 amounted to 0.529 µM on human TLR7 and 0.227 µM in the assay with CD69.

Consider `CCCCNc1nc(N)nc2cnn(Cc3cc(CNC4CCCC4)ccc3OC)c12` [Compound 120], for which the EC50 is 0.548 µM on human TLR7 and 0.288 µM with CD69.

As to `CCCCNc1nc(N)nc2cnn(Cc3cc(CNC4CC4)ccc3OC)c12` [Compound 121], the values for the EC50 at human TLR7 and in the assay on CD69 were 0.116 µM and 0.0569 µM, respectively.

Take `CCCCNc1nc(N)nc2cnn(Cc3cc(CNC4COC4)ccc3OC)c12` [Compound 122, N7-butyl-1-[(2-methoxy-5-{[(oxetan-3-yl)amino]-methyl}phenyl)methyl]-1H-pyrazolo[4,3-d]pyrimidine-5,7-diamine]: the 50% effective concentration (EC50) on human TLR7 is 0.548 µM; with CD69, 0.225 µM.

In the case of `CCCCNc1nc(N)nc2cnn(Cc3cc(CN4CC5COCC5C4)ccc3OC)c12` (stereo not drawn) [Compound 123, N7-butyl-1-{[5-({hexa-hydro-1H-furo[3,4-c]pyrrol-5-yl}methyl)-2-methoxyphenyl]methyl}-1H-pyrazolo[4,3-d] pyrimidine-5,7-diamine], the EC50 at human TLR7 is 0.158 µM; in the assay with CD69, 0.0898 µM.

For `CCCCNc1nc(N)nc2cnn(Cc3cc(CN4CC5(COC5)C4)ccc3OC)c12` [Compound 124, N7-butyl-1-{[2-methoxy-5-({2-oxa-6-azaspiro-[3.3]heptan-6-yl}-methyl)phenyl]methyl}-1H-pyrazolo[4,3-d]pyrimidine-5,7-diamine], the EC50 at human TLR7 was determined as 0.19 µM; with CD69, 0.0863 µM.

Take `CCCCNc1nc(N)nc2cnn(Cc3cc(CN4CC5(C4)CN(C(=O)C4CCC4)C5)ccc3OC)c12` [Compound 125, N7-butyl-1-{[5-({6-cyclobutanecarbonyl-2,6-diazaspiro[3.3]heptan-2-yl}methyl)-2-methoxy-phenyl]methyl}-1H-pyrazolo[4,3-d]pyrimidine-5,7-diamine]: the EC50 on human TLR7 came out at 0.191 µM; in the assay on CD69 it was 0.369 µM.

For `CCCCNc1nc(N)nc2cnn(Cc3cc(CN(C)CCNC)ccc3OC)c12` [Compound 126, N7-butyl-1-{[2-methoxy-5-({methyl[2-(methylamino)-ethyl]amino}methyl)phenyl]methyl}-1H-pyrazolo[4,3-d]pyrimidine-5,7-diamine], the EC50 at human TLR7 stood at 0.158 µM; in the assay with CD69, 0.0989 µM.

With `CCCCNc1nc(N)nc2cnn(Cc3cc(CN4CCN(CCO)CC4)ccc3OC)c12` [Compound 127, 2-{4-[(3-{[5-amino-7-(butylamino)-1H-- pyrazolo[4,3-d]pyrimidin-1-yl]methyl}-4-methoxy-phenyl)methyl]piperazin-1-yl}ethan-1-ol], the EC50 on human TLR7 is 0.107 µM; with CD69, 0.0475 µM.

On to `CCCCNc1nc(N)nc2cnn(Cc3cc(CN(C)C(=O)CCN(C)C)ccc3OC)c12` [Compound 128, N-[(3-{[5-amino-7-(butyl-amino)-1H-pyrazolo[4,3-d]pyrimidin-1-yl]methyl}-4-methoxyphenyl)methyl]-3-(dimethylamino)-N-methylpropanamide], for which the EC50 is 0.0562 µM at human TLR7 and 0.0126 µM in the assay with CD69.

As for `CCCCNc1nc(N)nc2cnn(Cc3cc(CNCC4(N)CCC4)ccc3OC)c12` [Compound 129, 1-{[5-({[(1-aminocyclo-butyl)methyl]amino}methyl)-2-methoxyphenyl]methyl}-N7-butyl-1H-pyrazolo[4,3-d]pyrimidine-5,7-diamine], the EC50 came to 0.587 µM at human TLR7 and 0.0609 µM in the assay with CD69.

Consider `CCCCNc1nc(N)nc2cnn(Cc3cc(CN4CCN(C5CCC5)CC4)ccc3OC)c12` [Compound 130, N7-butyl-1-({5-[(4-cyclobutylpiperazin-1-yl)methyl]-2-methoxy-phenyl}methyl)-1H-pyrazolo[4,3-d]pyrimidine-5,7-diamine], for which the EC50 at human TLR7 was 0.0499 µM; in the assay with CD69, 0.516 µM.

The record behind these values is patent US20230118688A1, “1H-PYRAZOLO[4,3-d]PYRIMIDINE COMPOUNDS AS TOLL-LIKE RECEPTOR 7 (TLR7) AGONISTS” (BRISTOL-MYERS SQUIBB COMPANY, priority 2020, published 2023).
